We go through 9 molecules from publication PMC9570211, “Analysis of 1-Aroyl-3-[3-chloro-2-methylphenyl] Thiourea Hybrids as Potent Urease Inhibitors: Synthesis, Biochemical Evaluation and Computational Approach” (International Journal of Molecular Sciences, 2022).

Like-named read-outs stand apart in the source and are kept apart here.

Test [1] is described as follows: DPPH free radical scavenging assay. As to conditions: in comparison of standard Vitamin C; up to 100 µg/mL. As to the method:
All of the produced 1-aroyl-3-[3-chloro-2-methylphenyl]thiourea compounds were assessed for the ability of DPPH free radical scavenging activity as depicted in Figure 2.
The assay performed in our studies had the same methodology as reported in our previous research articles.

In test [2] the target is T1, jack bean urease (JBU) (Canavalia ensiformis, UniProt P07374). As to the kind of experiment: biochemical. On the procedure: Hydrophobic and hydrophilic groups were substituted on a phenyl ring in the novel analogues 4a–j that were synthesized in order to check urease inhibition activity.
T1 sequence (P07374 whole entry, looked up): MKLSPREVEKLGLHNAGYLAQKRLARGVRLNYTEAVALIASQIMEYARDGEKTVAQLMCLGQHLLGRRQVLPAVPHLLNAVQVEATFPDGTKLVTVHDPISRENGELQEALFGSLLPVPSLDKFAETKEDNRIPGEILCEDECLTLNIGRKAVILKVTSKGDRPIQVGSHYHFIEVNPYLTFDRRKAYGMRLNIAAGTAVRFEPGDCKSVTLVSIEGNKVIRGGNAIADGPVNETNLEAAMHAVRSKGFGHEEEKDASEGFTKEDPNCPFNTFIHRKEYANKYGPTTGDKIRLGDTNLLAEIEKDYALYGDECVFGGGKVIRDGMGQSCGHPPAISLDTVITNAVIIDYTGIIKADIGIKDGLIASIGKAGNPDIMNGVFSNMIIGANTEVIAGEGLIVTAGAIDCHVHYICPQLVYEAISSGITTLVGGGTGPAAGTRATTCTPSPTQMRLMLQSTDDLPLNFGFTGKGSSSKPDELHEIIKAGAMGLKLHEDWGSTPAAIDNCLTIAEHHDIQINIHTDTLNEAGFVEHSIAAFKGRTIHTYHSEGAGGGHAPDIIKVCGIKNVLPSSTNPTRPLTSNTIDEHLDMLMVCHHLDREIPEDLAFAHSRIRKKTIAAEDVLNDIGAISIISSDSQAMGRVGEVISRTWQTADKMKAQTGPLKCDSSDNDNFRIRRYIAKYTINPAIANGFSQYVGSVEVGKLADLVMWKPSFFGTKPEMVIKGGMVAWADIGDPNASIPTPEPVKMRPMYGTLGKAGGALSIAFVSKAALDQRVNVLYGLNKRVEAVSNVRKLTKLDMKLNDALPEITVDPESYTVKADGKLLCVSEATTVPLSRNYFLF
The function of nitro, chloro, methyl and ethyl substitution in urease inhibitory activity was evaluated. Thiourea, a well-known urease inhibitor, served as the reference compound.
The methodology used in this research for in vitro urease inhibitory activity is the same as reported in our earlier paper.

Test [3] addresses T1, jack bean urease (JBU). The experiment in a line: Kinetic analysis of urease inhibition (Lineweaver–Burk). Type of test: biochemical. The source says: Kinetic investigations provided additional evidence for the inhibitory function, in which the potential of the potent derivative 4i to inhibit the substrate at different concentrations in such a way that enzyme concentration remained constant. The kinetic tests of the enzyme gave a series of straight lines by the Lineweaver–Burk plot of 1/V versus 1/[S] in the presence of varying compound concentrations (Figure 3A).
Kinetics performed here as stated previously in our research articles was used for urease activity determination.
Figure 3 Compound 4i inhibiting urease in a Lineweaver–Burk plot (A) Concentrations of 4i were 0.00, 0.001, 0.002 and 0.004 µM (Blue, green, red and black colored lines). […] The lines were constructed using least squares linear regression mean ± SEM.

As usually defined, the IC50 is the concentration that inhibits the measured activity by half. Broadly, the Ki is the equilibrium dissociation constant of an inhibitor or competing ligand from its target. A higher Ki goes with weaker binding. In the case of `Cc1c(Cl)cccc1NC(=S)NC(=O)c1ccccc1Cl` [Compound 4i], the “DPPH free radical scavenging activity” value in test [1] is “good activity”. Moreover, at jack bean urease (JBU) [2], 1.9 ± 1.1 nM corresponded to half-maximal inhibition (IC50). For the same molecule, at jack bean urease (JBU) [3], the Ki stood at 0.3 nM. Further, the “Inhibition Type” value at jack bean urease (JBU) [3] (Lineweaver–Burk plot) is “Non-Competitive”. Also, the values for the Vmax on jack bean urease (JBU) [3] (concentration of 4i 0.001 (µM per Figure 3)), at jack bean urease (JBU) [3] (concentration of 4i 0.002 (µM per Figure 3)) and on jack bean urease (JBU) [3] (concentration of 4i 0.004 (µM per Figure 3)) were 0.000387 ΔA/Min, 0.000131 ΔA/Min and 8.495 × 10^−5 ΔA/Min, respectively.
In the case of `Cc1c(Cl)cccc1NC(=S)NC(=O)c1cccc([N+](=O)[O-])c1` [Compound 4f], the “DPPH free radical scavenging activity” value in test [1] was “good activity”. The molecule further displayed an IC50 against jack bean urease (JBU) [2] of 13.6 nM.
`COc1ccc(C(=O)NC(=S)Nc2cccc(Cl)c2C)cc1` [Compound 4b]: it took 7.9 ± 4.8 nM to reach half-maximal inhibition on jack bean urease (JBU) [2] (IC50).
For `Cc1c(Cl)cccc1NC(=S)NC(=O)c1cc([N+](=O)[O-])cc([N+](=O)[O-])c1` [Compound 4g], the “DPPH free radical scavenging activity” value in test [1] is “good activity”. This molecule returned an IC50 against jack bean urease (JBU) [2] of 33.5 ± 99.4 nM.
For `Cc1c(Cl)cccc1NC(=S)NC(=O)c1ccc(Cl)cc1` [Compound 4h], in that order: “good activity” and 22.9 nM.
Consider `Cc1c(Cl)cccc1NC(=S)NC(=O)c1ccc([N+](=O)[O-])cc1` [Compound 4e], for which the “DPPH free radical scavenging activity” value in test [1] was “good activity”.
With `NC(N)=S` [Thiourea], the IC50 at jack bean urease (JBU) [2] (jack bean urease, mean ± SEM, read-out: Urease Activity IC50 ± SEM) was 4750 ± 54.5 nM.
In the case of `Cc1ccc(C(=O)NC(=S)Nc2cccc(Cl)c2C)cc1` [Compound 4d], in test [1], the “DPPH free radical scavenging activity” value is recorded as “good activity”. On jack bean urease (JBU) [2], this molecule gave an IC50 of 53.2 ± 99.5 nM.
In turn, `Cc1c(Cl)cccc1NC(=S)NC(=O)c1ccccc1` [Compound 4a, N-[[3-chloro-2-methylphenyl]carbamothioyl]benzamide] showed an IC50 against jack bean urease (JBU) [2] of 44.9 ± 85.4 nM.
